Assay results published in patent US5965743A, “N-substituted imidazol derivative” (Nippon Soda Co., Ltd., priority 1994, dated 1999).
Where two headings read alike, the source gives them in different places.

Key:
[1] = tested on: Triton WR-1339-Induced Hyperlipemia Mice; assay: Effect on serum lipid in Triton WR-1339-induced hyperlipemia mice; format: in vivo, mouse (Crj:ICR-strain); conditions: Mus musculus, po (3 x 33.3 mg/kg), average of 10 animals, 24 hours
Protocol: For this test, Crj:ICR-strain male mice aged 7-9 weeks were provided. […] After 24 hours, blood sampling was performed for each mouse from the abdominal aorta under anesthesia with ether, and the collected blood were placed into plastic test tubes being placed with a blood separating agent beforehand, then after 30 min. or 1 hour, the blood sampled was centrifuged at 10,000 rpm to obtain the serum. Total cholesterol value, HDL cholesterol value and total triglyceride value in the serum were respectively measured by using the measuring kits and automatic biochemical analyser.

[2] = tested on: biosynthesis of cholesterol; assay: Inhibitory effect on biosynthesis of cholesterol in cell-free biosystem; format: biochemical, rat (SD-strain); conditions: cell-free rat liver enzyme system, 90 min, 37° C., pH 7.4; read-out: 50% Inhibitory Concentration (IC50), cholesterol biosynthesis
Protocol: Inhibitory Effect on Biosynthesis of Cholesterol in Cell-free Biosystem
(1) Preparation of Enzyme Reaction System
(§1) The preparation of the enzymatic system for the biosynthesis of cholesterol in rats was carried out according to the method described in Biochimica et Biophysica Acta, Vol.486, pp 70-81, 1977.
(§2) More particularly, SD-strain female rats weighing from […] were fed for 7 to 10 days with a diet containing 2% cholestyramine to enhance their biosynthetic activity of cholesterol. After killed the rats by means of depletion of blood in midnight, the livers thereof were removed and homogenized with a double volume of 0.1 M potassium phosphate buffer solution (pH 7.4) containing 15 mM nicotine amide and 2 mM magnesium chloride by using a loose fitting-type teflon homogenizer. The supernatant obtained by centrifuging the homogenate at 12,000×g for 30 min. was further centrifuged at 105,000×g for 90 min., thereby separating it to the microsome fraction and the supernatant fraction. The supernatant obtained were kept as the fraction resulting in the precipitation in 40-80% ammonium sulfate (hereinafter referred to as "soluble fraction"). Each of the soluble fraction and the microsome fraction were independently adjusted with 0.1 M potassium phosphate buffer solution (pH 7.4) to the volumes of 1 ml/g of liver and 1 ml/3 g of liver, respectively, and were kept and used in the subsequent tests as an enzyme solution for the mixing ratio of 16:1.
(2) Method for Measuring Cholesterol Biosynthesis Activity
(§3) Cholesterol biosynthesis activity was measured according to the method described in Biochimica Biophysica Acta, Vol.486, pp 70-81, 1977. 2 μl dimethylsulfoxide solution of the test compound were added to a solution composed of 50 μl of the enzyme solution prepared in (1) described above, 0.1 M potassium phosphate buffer solution (pH 7.4), 1 mM ATP, 5 mM glucose-1-phosphate, 6 mM glutathione, 6 mM magnesium chloride, 0.04 mM coenzyme A, 0.25 mM NAD, 0.25 mM NADP and 1 mM 2-^14 C-sodium acetate (111 MBq./mmol), and the resultant solution was adjusted to the whole volume of 0.2 ml and then allowed to a reaction for 90 min. at 37° C. while shaking. The reaction was then stopped by adding 1 ml of 15% ethanol solution of potassium hydroxide, and the solution was then heated for 1 hour at 75° C. After extracted unsaponificated products with hexane from the solution, the solution was then condensed and dried to the hard state and subsequently dissolved in small volume of a mixture of chloroform and methanol (mixing ratio; 1:2). The resultant chloroform-methanol solution was spotted on a pre-coated silica gel TLC plate, then developed with a developer composed of benzene and ethyl acetate (mixing ratio; 9:1). The cholesterol spot was then taken out from the plate, and the radient activity of the spot was measured by using a liquid scintillation counter. Based on the radio-activity measured, mthe 50% inhibitory concentration (IC50) of the compounds of the present invention were determined.

[3] = molecular target: T1, squalene-2,3-oxide cyclase (Rattus norvegicus, UniProt P48450); assay: Sterol amount synthesized in cell-free cholesterol biosynthesis system (squalene-2,3-epoxide accumulation); format: biochemical, rat (SD-strain); conditions: average of 6 results
T1 sequence (P48450 2-733): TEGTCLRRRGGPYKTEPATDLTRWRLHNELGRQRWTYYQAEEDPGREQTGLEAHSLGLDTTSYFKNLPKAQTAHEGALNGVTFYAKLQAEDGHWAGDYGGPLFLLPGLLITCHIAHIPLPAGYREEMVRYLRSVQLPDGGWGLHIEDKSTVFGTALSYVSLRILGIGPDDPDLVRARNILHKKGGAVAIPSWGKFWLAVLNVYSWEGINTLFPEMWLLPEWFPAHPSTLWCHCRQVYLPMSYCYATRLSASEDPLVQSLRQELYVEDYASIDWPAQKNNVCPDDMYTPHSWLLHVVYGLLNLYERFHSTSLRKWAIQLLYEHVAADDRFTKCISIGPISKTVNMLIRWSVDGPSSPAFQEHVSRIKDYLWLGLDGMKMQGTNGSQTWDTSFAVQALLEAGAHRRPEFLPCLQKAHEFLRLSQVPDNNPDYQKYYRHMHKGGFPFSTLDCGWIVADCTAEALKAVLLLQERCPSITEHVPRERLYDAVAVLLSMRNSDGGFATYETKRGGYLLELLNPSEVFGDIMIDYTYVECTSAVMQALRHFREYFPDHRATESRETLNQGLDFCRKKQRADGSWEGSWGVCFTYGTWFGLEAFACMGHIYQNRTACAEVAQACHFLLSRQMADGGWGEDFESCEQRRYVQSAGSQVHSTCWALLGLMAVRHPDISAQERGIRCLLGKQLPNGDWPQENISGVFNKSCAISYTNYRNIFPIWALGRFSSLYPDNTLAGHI
Protocol: as §1, §2, §3
On the other hand, after determining the position of ^14 C-squalene-2,3-epoxide on the TLC, which was produced due to the action of AMO 1618 (Calbiochem, USA), a squalene-2,3-oxidecyclase inhibitor, the spot containing squalene-2,3-epoxide […] was taken out and the radio-activity thereof was then determined by using a liquid scintillation counter.

[4] = read-out: % Change of Serum Lipid to Control Group: HDL Cholesterole
[5] = read-out: % Change of Serum Lipid to Control Group: Total Cholesterole
[6] = read-out: % Change of Serum Lipid to Control Group: Total glyceride
[7] = 1 μM, control 2125 (Test 1, 1-17), 953 (Test 2, 2-47)
[8] = 1 μM, control 15448 (Test 1, 1-17), 9453 (Test 2, 2-47)
[9] = 1 μM, control 85102 (Test 1, 1-17), 53622 (Test 2, 2-47)
[10] = 3 μM, control 2125 (Test 1, 1-17), 953 (Test 2, 2-47)
[11] = 3 μM, control 15448 (Test 1, 1-17), 9453 (Test 2, 2-47)
[12] = 3 μM, control 85102 (Test 1, 1-17), 53622 (Test 2, 2-47)
[13] = 10 μM, control 2125 (Test 1, 1-17), 953 (Test 2, 2-47)
[14] = 10 μM, control 15448 (Test 1, 1-17), 9453 (Test 2, 2-47)
[15] = 10 μM, control 85102 (Test 1, 1-17), 53622 (Test 2, 2-47)
[16] = 30 μM, control 2125 (Test 1, 1-17), 953 (Test 2, 2-47)
[17] = 30 μM, control 15448 (Test 1, 1-17), 9453 (Test 2, 2-47)
[18] = 30 μM, control 85102 (Test 1, 1-17), 53622 (Test 2, 2-47)

SMILES | change in vivo at 100 mg/kg [1, 4] [%] | change in vivo at 100 mg/kg [1, 5] [%] | change in vivo at 100 mg/kg [1, 6] [%] | IC50 [2] [nM] | also measured
CC[C@H](C)C(=O)O[C@H]1C[C@H](O)C=C2C=C[C@H](C)[C@H](CC[C@@H](O)C[C@@H](O)CC(=O)O)[C@H]21 [Pravastatin, reference compound] | -8 | -16 | -28 |  | 
c1ccc(OCCCCNc2ccc(-n3ccnc3)cc2)cc1 [Compound 1-35] |  |  |  | 2200 | 
c1ccc(OCCCNc2ccc(-n3ccnc3)cc2)cc1 [Compound 1-33] |  |  |  | 6200 | 
c1ccc(CCCOc2ccc(-n3ccnc3)cc2)cc1 [Compound 1-47] | 46 | -16 | -23 | 7000 | 
CCCCCCCCCCOc1ccc(-n2ccnc2)cc1 [Compound 1-119] |  |  |  | 9000 | 
CC(CCOc1ccc(-n2ccnc2)cc1)c1ccccc1 (stereo not drawn) [Compound 1-48] |  |  |  | 1400 | 
c1ccc(CCCOc2ccc(Cn3ccnc3)cc2)cc1 [Compound 2-47, 1-[4-(3-phenylpropyloxy)benzyl]imidazole] |  |  |  | 1400 | Sterol Amount Synthesized: Squalene-2,3-epoxide [3, 7]: 221 dpm/90min/Assay; Sterol Amount Synthesized: Cholesterol [3, 8]: 5289 dpm/90min/Assay; Sterol Amount Synthesized: Total Amount Synthesized [3, 9]: 53803 dpm/90min/Assay; Sterol Amount Synthesized: Squalene-2,3-epoxide [3, 10]: 1280 dpm/90min/Assay; Sterol Amount Synthesized: Cholesterol [3, 11]: 6333 dpm/90min/Assay; Sterol Amount Synthesized: Total Amount Synthesized [3, 12]: 56335 dpm/90min/Assay; Sterol Amount Synthesized: Squalene-2,3-epoxide [3, 13]: 1836 dpm/90min/Assay; Sterol Amount Synthesized: Cholesterol [3, 14]: 4210 dpm/90min/Assay; Sterol Amount Synthesized: Total Amount Synthesized [3, 15]: 72823 dpm/90min/Assay; Sterol Amount Synthesized: Squalene-2,3-epoxide [3, 16]: 7126 dpm/90min/Assay; Sterol Amount Synthesized: Cholesterol [3, 17]: 3787 dpm/90min/Assay; Sterol Amount Synthesized: Total Amount Synthesized [3, 18]: 63661 dpm/90min/Assay
c1ccc(CCCCCCNc2ccc(-n3ccnc3)cc2)cc1 [Compound 1-24] |  |  |  | 2600 | 
c1ccc(OCCCOc2ccc(Cn3ccnc3)cc2)cc1 [Compound 2-60] |  |  |  | 10000 | 
Cc1cc(OC(=O)N2CCCCC2)c(C(C)C)cc1[N+](C)(C)C [AMO 1618, reference compound] |  |  |  | 140000 | 
CN(CCCc1ccccc1)c1ccc(-n2ccnc2)cc1 [Compound 1-27] | 65 | -14 | -22 | 1800 | 
c1ccc(CCCCNc2ccc(-n3ccnc3)cc2)cc1 [Compound 1-20] |  |  |  | 700 | 
c1ccc(CCCNc2ccc(-n3ccnc3)cc2)cc1 [Compound 1-17] | 78 | -29 | -46 | 1500 | Sterol Amount Synthesized: Squalene-2,3-epoxide [3, 7]: 3238 dpm/90min/Assay; Sterol Amount Synthesized: Cholesterol [3, 8]: 15297 dpm/90min/Assay; Sterol Amount Synthesized: Total Amount Synthesized [3, 9]: 72069 dpm/90min/Assay; Sterol Amount Synthesized: Squalene-2,3-epoxide [3, 10]: 2102 dpm/90min/Assay; Sterol Amount Synthesized: Cholesterol [3, 11]: 8938 dpm/90min/Assay; Sterol Amount Synthesized: Total Amount Synthesized [3, 12]: 82446 dpm/90min/Assay; Sterol Amount Synthesized: Squalene-2,3-epoxide [3, 13]: 7382 dpm/90min/Assay; Sterol Amount Synthesized: Cholesterol [3, 14]: 6364 dpm/90min/Assay; Sterol Amount Synthesized: Total Amount Synthesized [3, 15]: 79733 dpm/90min/Assay; Sterol Amount Synthesized: Squalene-2,3-epoxide [3, 16]: 10914 dpm/90min/Assay; Sterol Amount Synthesized: Cholesterol [3, 17]: 3558 dpm/90min/Assay; Sterol Amount Synthesized: Total Amount Synthesized [3, 18]: 95990 dpm/90min/Assay; Sterol Amount Synthesized: Squalene-2,3-epoxide ([3]; 100 μM, control 2125 (Test 1)): 12736 dpm/90min/Assay; Sterol Amount Synthesized: Cholesterol ([3]; 100 μM, control 15448 (Test 1)): 1830 dpm/90min/Assay; Sterol Amount Synthesized: Total Amount Synthesized ([3]; 100 μM, control 85102 (Test 1)): 77489 dpm/90min/Assay
CCCCCCCCCCNc1ccc(-n2ccnc2)cc1 [Compound 1-115] | 22 | -17 | -25 | 10000 | 
c1ccc(OCCCCOc2ccc(-n3ccnc3)cc2)cc1 [Compound 1-61] |  |  |  | 4000 | 
c1ccc(OCCOc2ccc(Cn3ccnc3)cc2)cc1 [Compound 2-59, 1-[4-(2-phenoxyethyloxy)benzyl]imidazole] |  |  |  | 21000 | 
Cc1ccc(OCCCOc2ccc(Cn3ccnc3)cc2)cc1 [Compound 2-95, 1-{4-[3-(4-tolyloxy)propyloxy]benzyl} imidazole] |  |  |  | 2400 | 
c1ccc(CCCCCCOc2ccc(-n3ccnc3)cc2)cc1 [Compound 1-53] |  |  |  | 1700 | 
O=S(=O)(CCCOc1ccc(Cn2ccnc2)cc1)c1ccccc1 [Compound 2-68, 1-[4-(3-benzenesulfonylpropyloxy)benzyl]imidazole] |  |  |  | < 1000 | 
c1ccc(CCCCOc2ccc(-n3ccnc3)cc2)cc1 [Compound 1-49, 1-[4-(4-phenylbutoxy)phenyl]imidazole] |  |  |  | 680 | 
c1ccc(CCCCOc2ccc(Cn3ccnc3)cc2)cc1 [Compound 2-49, 1-[4-(4-phenylbutyloxy)benzyl]imidazole] | 20 | -16 | -10 | 1200 | 
c1ccc(OCCCOc2ccc(-n3ccnc3)cc2)cc1 [Compound 1-60] | 52 | -22 | -37 | 4800 | 
